Values of other authors in patent US20050020536A1, “Highly pure fondaparinux sodium composition, process for preparing said composition and pharmaceutical compositions containing it as active principle” (priority 2003, published 2005).

System: factor Xa
Details: general statement in the introduction, no method given

CO[C@H]1O[C@H](COS(=O)(=O)[O-])[C@@H](O[C@@H]2O[C@@H](C(=O)[O-])[C@@H](O[C@H]3O[C@H](COS(=O)(=O)[O-])[C@@H](O[C@@H]4O[C@H](C(=O)[O-])[C@@H](O[C@H]5O[C@H](COS(=O)(=O)[O-])[C@@H](O)[C@H](O)[C@H]5NS(=O)(=O)[O-])[C@H](O)[C@H]4O)[C@H](OS(=O)(=O)[O-])[C@H]3NS(=O)(=O)[O-])[C@H](O)[C@H]2OS(=O)(=O)[O-])[C@H](O)[C@H]1NS(=O)(=O)[O-].[Na+].[Na+].[Na+].[Na+].[Na+].[Na+].[Na+].[Na+].[Na+].[Na+] [Fondaparinux sodium, methyl O-2-deoxy-6-O-sulfo-2-(sulfoamino)-α-D-glucopyranosyl-(1→4)-O-β-D-glucopyranuronosyl-(1→4)-O-2-deoxy-3,6-di-O-sulfo-2-(sulfoamino)-α-D-glucopyranosyl-(1→4)-2-O-sulfo-α-D-glucopyranosyl-(1→4)-O-2-O-sulfo-L-idopyranurosyl-(1→4)-2-deoxy-6-O-sulfo-2-(sulfoamino)-α-D-glucopyranoside, decakissodium salt]
anti-factor Xa (anti Xa) activity: very powerful
